How the values were obtained:
[1] = test system: HeLa (cervical cancer); assay: MTT cell viability assay, HeLa; format: cell-based, human; conditions: for IC50: Homo sapiens, HeLa, MTT assay, 72 h of incubation
Experimental: (§1) Analysis was performed using an MTT assay after 72 h of incubation.
(§2) All chemicals, if not stated otherwise, were obtained from Sigma–Aldrich (St. Louis, MO, USA). The HCT-116 cell line was purchased from ATCC (ATCC-No: CCL-247), while the MCF-7, HeLa and HaCaT cell lines were purchased from Cell Lines Services (Eppelheim, Germany). Cells were cultured in Dulbecco’s modified Eagle’s medium (DMEM) supplemented with 10% fetal bovine serum, 2 mM glutamine, 100 units/mL penicillin and 100 µg/mL streptomycin. Cultures were maintained in a humidified atmosphere with 5% carbon dioxide at 37 °C in an incubator (Heraceus, HeraCell).
(§3) Cell viability was examined using the MTT [3-(4,5-dimethylthiazol-2-yl)-2,5-diphenyltetrazolium bromide] assay. Cells were seeded in 96-well plates at a density of 3 × 10^3 cells/well and treated for 72 h with the tested compounds in the concentration range of 1–100 µM. Then, MTT (0.5 mg/mL) was added to the medium and cells were further incubated for 2 h at 37 °C. In the next stage, cells were lysed with DMSO and the absorbance of the formazan solution was measured at 550 nm with a plate reader (1420 multilabel counter, Victor, Jügesheim, Germany). The experiment was performed in triplicate. Values are expressed as the mean ± SD of at least three independent experiments.

[2] = test system: HCT-116 (colon cancer); assay: MTT cell viability assay, HCT-116; format: cell-based, human; conditions: for IC50: Homo sapiens, HCT-116, 72 h, MTT assay, 72 h of incubation
Experimental: as §1, §2, §3

[3] = test system: MCF-7 (breast cancer); assay: MTT cell viability assay, MCF-7; format: cell-based, human; conditions: for IC50: Homo sapiens, MCF7, 72 h, MTT assay, 72 h of incubation
Experimental: (§4) Compounds 20–162 were evaluated in vitro for their effects on the viability of three cancer cell lines: HCT-116 (colon cancer), MCF-7 (breast cancer) and HeLa (cervical cancer), as well as the non-cancerous keratinocyte cell line (HaCaT). […] Analysis was performed using an MTT assay after 72 h of incubation.
as §2
as §3, with “experiments. Cisplatin was used as a positive control.” for “experiments.”

[4] = test system: HaCaT (human keratinocyte cell line); assay: MTT cell viability assay, non-cancerous HaCaT; format: cell-based; conditions: Homo sapiens, HaCaT, 72 h, 72 h of incubation, non-cancerous keratinocytes
Experimental: as §4, §2
as §3, with “experiments. Cisplatin was used as a positive control.” for “experiments.”

Row | IC50 [1] | IC50 [2] | IC50 [3] | Structure (SMILES) | IC50 [4] | Selectivity Index (SI) HeLa ([1]; IC50 value toward HaCaT cells/IC50 value toward HeLa) | Selectivity Index (SI) HCT-116 ([2]; IC50 value toward HaCaT cells/IC50 value toward HCT-116) | Selectivity Index (SI) MCF-7 ([3]; IC50 value toward HaCaT cells/IC50 value toward MCF-7)
1 | 115 ± 7 µM | 110 ± 2 µM | 220 ± 6 µM | Cc1cc(S(=O)(=O)N=C2NCCN2)c(SCc2nc(N)nc(N(C)C)n2)cc1Cl [Compound 20] | – | – | – | –
2 | 510 ± 5 µM | 350 ± 7 µM | 190 ± 2 µM | Cc1cc(S(=O)(=O)N=C2NCCN2)c(SCc2nc(N)nc(N3CCOCC3)n2)cc1Cl [Compound 21] | – | – | – | –
3 | 110 ± 4 µM | 140 ± 3 µM | 130 ± 4 µM | CC1=NN(c2nc(N)nc(CSc3cc(Cl)c(C)cc3S(=O)(=O)N=C3NCCN3)n2)C(C)(C)C1 [Compound 22] | – | – | – | –
4 | 150 ± 2 µM | 142 ± 4 µM | 130 ± 3 µM | Cc1cc(S(=O)(=O)N=C2NCCN2)c(SCc2nc(N)nc(N3CCc4ccccc43)n2)cc1Cl [Compound 23] | – | – | – | –
5 | 22 ± 0.2 µM | 20 ± 0.4 µM | 27 ± 0.3 µM | Cc1cc(S(=O)(=O)N=C2NCCN2)c(SCc2nc(N)nc(N3CCCc4ccccc43)n2)cc1Cl [Compound 24] | 41 ± 1 µM | – | – | –
6 | 46 ± 2 µM | 45 ± 2 µM | 46 ± 2 µM | Cc1cc(S(=O)(=O)N=C2NCCN2)c(SCc2nc(N)nc(Nc3ccccc3)n2)cc1Cl [Compound 25] | 54 ± 2 µM | – | – | –
7 | 34 ± 1 µM | 33 ± 2 µM | 33 ± 1 µM | Cc1cc(S(=O)(=O)N=C2NCCN2)c(SCc2nc(N)nc(Nc3ccc(F)cc3)n2)cc1Cl [Compound 26] | 45 ± 2 µM | – | – | –
8 | 74 ± 2 µM | 39 ± 2 µM | 44 ± 1 µM | Cc1cc(S(=O)(=O)N=C2NCCN2)c(SCc2nc(N)nc(NCc3ccccc3)n2)cc1Cl [Compound 27] | 75 ± 3 µM | – | – | –
9 | 80 ± 1 µM | 58 ± 0.6 µM | 45 ± 0.5 µM | Cc1cc(S(=O)(=O)N=C2NCCN2)c(SCc2nc(N)nc(N(C)c3ccccc3)n2)cc1Cl [Compound 28] | – | – | – | –
10 | 32 ± 0.3 µM | 25 ± 0.5 µM | 24 ± 0.2 µM | Cc1cc(S(=O)(=O)N=C2NCCN2)c(SCc2nc(N)nc(N(C)c3ccc(Cl)cc3)n2)cc1Cl [Compound 29] | 43 ± 2 µM | – | – | –
11 | 16 ± 0.1 µM | – | – | Cc1cc(S(=O)(=O)N=C2NCCN2)c(SCc2nc(N)nc(N3CCN(c4ccccc4)CC3)n2)cc1Cl [Compound 31] | 26 ± 1 µM | – | – | –
12 | 14 ± 0.5 µM | 14 ± 0.5 µM | 16 ± 0.5 µM | Cc1cc(S(=O)(=O)N=C2NCCN2)c(SCc2nc(N)nc(N3CCN(c4ccc(F)cc4)CC3)n2)cc1Cl [Compound 32] | 28 ± 1 µM | – | – | –
13 | 25 ± 1 µM | 19 ± 0.5 µM | 26 ± 1 µM | Cc1cc(S(=O)(=O)N=C2NCCN2)c(SCc2nc(N)nc(N3CCN(c4ccccc4F)CC3)n2)cc1Cl [Compound 33] | 41 ± 2 µM | – | – | –
14 | 24 ± 2 µM | 18 ± 1 µM | 12 ± 0.5 µM | Cc1cc(S(=O)(=O)N=C2NCCN2)c(SCc2nc(N)nc(N3CCN(c4ccc(C(F)(F)F)cc4)CC3)n2)cc1Cl [Compound 34] | 41 ± 1 µM | – | – | –
15 | 16 ± 1 µM | 14 ± 0.7 µM | 16 ± 1 µM | Cc1cc(S(=O)(=O)N=C2NCCN2)c(SCc2nc(N)nc(N3CCN(c4cccc(C(F)(F)F)c4)CC3)n2)cc1Cl [Compound 35] | 32 ± 2 µM | – | – | –
16 | 12 ± 0.1 µM | 12 ± 0.1 µM | 13 ± 0.1 µM | Cc1cc(S(=O)(=O)N=C2NCCN2)c(SCc2nc(N)nc(N3CCN(c4ccc(Cl)cc4)CC3)n2)cc1Cl [Compound 36] | 28 ± 1 µM | – | – | –
17 | 24 ± 1 µM | 18 ± 0.5 µM | 19 ± 1 µM | Cc1cc(S(=O)(=O)N=C2NCCN2)c(SCc2nc(N)nc(N3CCN(c4cccc(Cl)c4)CC3)n2)cc1Cl [Compound 37] | 37 ± 2 µM | – | – | –
18 | 19 ± 1 µM | 15 ± 0.5 µM | 28 ± 1 µM | Cc1cc(S(=O)(=O)N=C2NCCN2)c(SCc2nc(N)nc(N3CCN(c4ccc(Cl)c(Cl)c4)CC3)n2)cc1Cl [Compound 38] | 35 ± 1 µM | – | – | –
19 | 18 ± 1 µM | 15 ± 1 µM | 17 ± 1 µM | Cc1cc(S(=O)(=O)N=C2NCCN2)c(SCc2nc(N)nc(N3CCN(c4ccc(F)c(Cl)c4)CC3)n2)cc1Cl [Compound 39] | 37 ± 2 µM | – | – | –

Row | IC50 [1] | IC50 [2] | IC50 [3] | Structure (SMILES) | IC50 [4] | Selectivity Index (SI) HeLa ([1]; IC50 value toward HaCaT cells/IC50 value toward HeLa) | Selectivity Index (SI) HCT-116 ([2]; IC50 value toward HaCaT cells/IC50 value toward HCT-116) | Selectivity Index (SI) MCF-7 ([3]; IC50 value toward HaCaT cells/IC50 value toward MCF-7)
20 | 23 ± 1 µM | 21 ± 0.5 µM | 28 ± 2 µM | COc1ccc(N2CCN(c3nc(N)nc(CSc4cc(Cl)c(C)cc4S(=O)(=O)N=C4NCCN4)n3)CC2)cc1 [Compound 40] | 45 ± 3 µM | – | – | –
21 | 39 ± 2 µM | 21 ± 1 µM | 46 ± 1 µM | COc1ccccc1N1CCN(c2nc(N)nc(CSc3cc(Cl)c(C)cc3S(=O)(=O)N=C3NCCN3)n2)CC1 [Compound 41] | 51 ± 3 µM | – | – | –
22 | 30 ± 1.5 µM | 31 ± 1 µM | 31 ± 2 µM | Cc1cc(S(=O)(=O)N=C2NCCN2)c(SCc2nc(N)nc(N3CCN(Cc4ccccc4)CC3)n2)cc1Cl [Compound 42] | 61 ± 4 µM | – | – | –
23 | 19 ± 0.5 µM | 17 ± 1 µM | 22 ± 0.5 µM | Cc1cc(S(=O)(=O)N=C2NCCN2)c(SCc2nc(N)nc(N3CCC(Cc4ccccc4)CC3)n2)cc1Cl [Compound 43] | 43 ± 2 µM | – | – | –
24 | 14 ± 0.5 µM | 14 ± 0.5 µM | 16 ± 0.5 µM | Cc1cc(S(=O)(=O)N=C2NCCN2)c(SCc2nc(N)nc(N3CC=C(c4ccc(F)cc4)CC3)n2)cc1Cl [Compound 44] | 28 ± 1 µM | – | – | –
25 | 34 ± 1 µM | 19 ± 0.4 µM | 22 ± 0.2 µM | Cc1cc(S(=O)(=O)N=C2NCCN2Cc2ccccc2)c(SCc2nc(N)nc(N(C)C)n2)cc1Cl [Compound 45] | 43 ± 2 µM | – | – | –
26 | 37 ± 0.4 µM | 21 ± 0.2 µM | 23 ± 0.7 µM | Cc1cc(S(=O)(=O)N=C2NCCN2Cc2ccccc2)c(SCc2nc(N)nc(N3CCOCC3)n2)cc1Cl [Compound 46] | – | – | – | –
27 | 34 ± 0.3 µM | 19 ± 0.2 µM | 20 ± 0.4 µM | CC1=NN(c2nc(N)nc(CSc3cc(Cl)c(C)cc3S(=O)(=O)N=C3NCCN3Cc3ccccc3)n2)C(C)(C)C1 [Compound 47] | 45 ± 2 µM | – | – | –
28 | 24 ± 0.5 µM | 14 ± 0.1 µM | 17 ± 0.3 µM | Cc1cc(S(=O)(=O)N=C2NCCN2Cc2ccccc2)c(SCc2nc(N)nc(N3CCCc4ccccc43)n2)cc1Cl [Compound 49] | 38 ± 1 µM | – | – | –
29 | 35 ± 2 µM | 18 ± 0.2 µM | 43 ± 1 µM | Cc1cc(S(=O)(=O)N=C2NCCN2Cc2ccccc2)c(SCc2nc(N)nc(Nc3ccccc3)n2)cc1Cl [Compound 50] | 51 ± 2 µM | – | – | –
30 | 15 ± 1 µM | 19 ± 0.6 µM | 10 ± 0.5 µM | Cc1cc(S(=O)(=O)N=C2NCCN2Cc2ccccc2)c(SCc2nc(N)nc(Nc3ccc(C(F)(F)F)cc3)n2)cc1Cl [Compound 51] | 220 ± 12 µM | – | – | –
31 | 61 ± 2 µM | 37 ± 0.5 µM | 64 ± 2 µM | COc1ccc(Nc2nc(N)nc(CSc3cc(Cl)c(C)cc3S(=O)(=O)N=C3NCCN3Cc3ccccc3)n2)cc1 [Compound 52] | 92 ± 3 µM | – | – | –
32 | 85 ± 2 µM | 10 ± 0.5 µM | 11 ± 0.5 µM | Cc1cc(S(=O)(=O)N=C2NCCN2Cc2ccccc2)c(SCc2nc(N)nc(NCc3ccccc3)n2)cc1Cl [Compound 53] | 81 ± 4 µM | – | – | –
33 | 16 ± 0.2 µM | 11 ± 0.1 µM | 12 ± 0.1 µM | Cc1cc(S(=O)(=O)N=C2NCCN2Cc2ccccc2)c(SCc2nc(N)nc(N(C)c3ccccc3)n2)cc1Cl [Compound 54] | 28 ± 1 µM | – | – | –
34 | 13 ± 0.1 µM | 7 ± 0.1 µM | 10 ± 0.2 µM | Cc1cc(S(=O)(=O)N=C2NCCN2Cc2ccccc2)c(SCc2nc(N)nc(N(C)c3ccc(Cl)cc3)n2)cc1Cl [Compound 55] | 39 ± 2 µM | 3.0 | 5.5 | 3.9
35 | 37 ± 1 µM | 22 ± 1 µM | 54 ± 1 µM | Cc1cc(S(=O)(=O)N=C2NCCN2Cc2ccccc2)c(SCc2nc(N)nc(N3CCN(C)CC3)n2)cc1Cl [Compound 56] | 58 ± 2 µM | – | – | –
36 | 88 ± 3 µM | 94 ± 2 µM | 98 ± 5 µM | Cc1cc(S(=O)(=O)N=C2NCCN2Cc2cccc3ccccc23)c(SCc2nc(N)nc(N3CCN(c4ccc(Cl)cc4)CC3)n2)cc1Cl [Compound 79] | – | – | – | –
37 | 98 ± 5 µM | 79 ± 2 µM | 89 ± 4 µM | Cc1cc(S(=O)(=O)N=C2NCCN2Cc2cccc3ccccc23)c(SCc2nc(N)nc(N3CCN(c4ccc(Cl)c(Cl)c4)CC3)n2)cc1Cl [Compound 80] | – | – | – | –
